PMC4980838 (European journal of medicinal chemistry, 2010)

Key:
[1] = tested on: human HT-29 colon tumor cell line; test: Tumor cell growth inhibition, HT-29; format: cell-based; conditions: HT-29, 72 h, read-out: Growth inhibition IC50
[2] = target: recombinant human PDE5 enzyme (Homo sapiens, UniProt O76074); test: Phosphodiesterase assay; format: biochemical

IC50 [1]: 1600 nM
PDE5 inhibitory activity (in words) [2]: did not show PDE5 inhibitory activity
SMILES: COC(=O)[C@@H]1Cc2c([nH]c3ccccc23)[C@@H](c2ccccc2Br)N1C(=O)CCl [Compound 6d, Methyl (1R,3S)-1-(2-bromophenyl)-2-(2-chloroacetyl)-2,3,4,9-tetrahydro-1H-β-carboline-3-carboxylate]
